The target in test [1] is T1, rI-FABP (SEQ ID NO: 3) variant BL22P1B11, MGI-KR14-14R 18L 25C 27A 38V 60R 73F 106L 115R 117D, SEQ ID NO: 35 (Rattus norvegicus, UniProt P02693, A74F/K101R/K126R/K17R/K21R/K28A/K30R/K38R/K47R/K51R/K89R/K8R/K93R/K95R/L39V/L73A/M19L/Q116R/R107L/V26C/V61R/Y118D/Y15R).
T1 construct: made in house
In kind it is binding. Particulars: Table 5, Alexa Fluor 680 C2-maleimide; read-out: Kd.

Test [2] has as its target T2, rI-FABP (SEQ ID NO: 3) variant L24P19C7-K27C, 14R 18L 27C 38V 60R 73F 106C 115R 117D (Rattus norvegicus, UniProt P02693, A74F/K28C/L39V/L73A/M19L/Q116R/R107C/V61R/Y118D/Y15R).
T2 construct: made in house
The test is described as follows: bilirubin binding to L24P19C7-K27C probe. The settings on record: Table 5, acrylodan. How it is done: (§1) Also described are analytical/mathematical methods for calibrating and using the bilirubin probes. Bilirubin probes are calibrated to determine their binding affinity for bilirubin (dissociation constant Kd) under conditions, such as temperature, pH and solution composition, that correspond to samples in which it is desired to know the unbound bilirubin concentration. Binding isotherms are performed in aqueous buffer by measuring the change in fluorescence of the bilirubin probes in response to increasing bilirubin concentrations (“titration data”). The set of fluorescence responses at each bilirubin concentration are fitted with an appropriate equation (“calibration equation”) that correctly describes the fluorescence response as a function of the bilirubin concentration, the probe concentration, specific spectroscopic characteristics, and the Kd.

Test [3] concerns the target T3, rI-FABP (SEQ ID NO: 3) variant L2P14F7-MGCFD, MGCFD - 18G 31M 72A (Rattus norvegicus, UniProt P02693, A2G/G32M/INS2C/L73A/M19G).
T3 construct: made in house
The test is described as follows: bilirubin binding to L2P14F7-MGCFD probe. The settings on record: Table 5, Texas Red C2-Maleimide. Here is the method:
as §1

Test [4] has as its target rI-FABP (SEQ ID NO: 3) variant L2P14 F7, 18G 31M 72A (Rattus norvegicus, UniProt P02693, G32M/L73A/M19G). The test is described as follows: bilirubin binding to L2P14F7 probe. The settings on record: Table 6, acrylodan. Here is the method: as §1
The target in test [5] is T4, rI-FABP (SEQ ID NO: 3) variant BL10P10 D10, 14F 18L 27C 38M 60Y 73F 106V 115R 117D (Rattus norvegicus, UniProt P02693, A74F/K28C/L39M/L73A/M19L/Q116R/R107V/V61Y/Y118D/Y15F).
T4 construct: made in house
In words: bilirubin binding to BL10P10D10 probe. The settings on record: Table 5, acrylodan. How it is done:
as §1

The target of test [6] is T5, rI-FABP (SEQ ID NO: 3) variant L24P19 C7 K27K 25C, 14R 18L 25C 38V 60R 73F 106C 115R 117D (Rattus norvegicus, UniProt P02693, A74F/L39V/L73A/M19L/Q116R/R107C/V26C/V61R/Y118D/Y15R).
T5 construct: made in house
The test is described as follows: bilirubin binding to L24P19C7 25C probe. The settings on record: Table 5, acrylodan. Here is the method:
as §1
. […] The optimal probe performance was obtained with cysteine at positions 25 or 26.

Test [7] deals with T6, rI-FABP (SEQ ID NO: 3) variant L22P19 B9, 38R 72A 73M 106Q 115C (Rattus norvegicus, UniProt P02693, A74M/L39R/L73A/Q116C/R107Q).
T6 construct: made in house
In words: bilirubin binding to L22P19B9 probe. The settings on record: Table 5, acrylodan. How it is done: as §1

The target in test [8] is T7, rI-FABP (SEQ ID NO: 3) variant BL2P2 B6, 14R 18L 31C 38V 60R 73V 106A 115R 117D (Rattus norvegicus, UniProt P02693, A74V/G32C/L39V/L73A/M19L/Q116R/R107A/V61R/Y118D/Y15R).
T7 construct: made in house
In words: bilirubin binding to BL2P2B6 probe. The settings on record: Table 5, acrylodan. How it is done:
as §1

T4 sequence (P02693 with tags, fused parts or gaps Y15F/M19L/K28C/L39M/V61Y/L73A/A74F/R107V/Q116R/Y118D): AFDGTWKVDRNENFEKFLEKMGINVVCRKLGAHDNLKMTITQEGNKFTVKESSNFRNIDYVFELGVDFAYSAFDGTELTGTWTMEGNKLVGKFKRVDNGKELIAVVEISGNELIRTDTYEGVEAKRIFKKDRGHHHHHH
T1 sequence (P02693 with tags, fused parts or gaps with the stated changes): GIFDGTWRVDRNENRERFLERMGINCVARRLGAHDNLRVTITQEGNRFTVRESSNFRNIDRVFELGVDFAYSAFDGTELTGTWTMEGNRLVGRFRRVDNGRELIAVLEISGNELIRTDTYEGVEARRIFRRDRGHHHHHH
T2 sequence (P02693 with tags, fused parts or gaps Y15R/M19L/K28C/L39V/V61R/L73A/A74F/R107C/Q116R/Y118D): as the sequence (P02693 with tags, fused parts or gaps Y15F/M19L/K28C/L39M/V61Y/L73A/A74F/R107V/Q116R/Y118D) above, with F14R, M38V, Y60R, V106C counted along it
T3 sequence (P02693 with tags, fused parts or gaps M19G/G32M/L73A): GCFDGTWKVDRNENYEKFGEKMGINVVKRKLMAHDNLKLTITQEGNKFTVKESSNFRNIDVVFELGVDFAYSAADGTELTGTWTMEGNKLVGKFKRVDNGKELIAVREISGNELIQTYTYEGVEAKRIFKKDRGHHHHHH
T6 sequence (P02693 with tags, fused parts or gaps L39R/L73A/A74M/R107Q/Q116C): as the sequence (P02693 with tags, fused parts or gaps Y15F/M19L/K28C/L39M/V61Y/L73A/A74F/R107V/Q116R/Y118D) above, with F14Y, L18M, C27K, M38R, Y60V, F73M, V106Q, R115C, D117Y counted along it
T5 sequence (P02693 with tags, fused parts or gaps Y15R/M19L/V26C/L39V/V61R/L73A/A74F/R107C/Q116R/Y118D): as the sequence (P02693 with tags, fused parts or gaps Y15F/M19L/K28C/L39M/V61Y/L73A/A74F/R107V/Q116R/Y118D) above, with F14R, V25C, C27K, M38V, Y60R, V106C counted along it
Chain of rI-FABP (SEQ ID NO: 3) variant L2P14 F7, 18G 31M 72A (P02693 with tags, fused parts or gaps M19G/G32M/L73A): as the sequence (P02693 with tags, fused parts or gaps Y15F/M19L/K28C/L39M/V61Y/L73A/A74F/R107V/Q116R/Y118D) above, with F14Y, L18G, C27K, G31M, M38L, Y60V, F73A, V106R, R115Q, D117Y counted along it
T7 sequence (P02693 with tags, fused parts or gaps Y15R/M19L/G32C/L39V/V61R/L73A/A74V/R107A/Q116R/Y118D): as the sequence (P02693 with tags, fused parts or gaps Y15F/M19L/K28C/L39M/V61Y/L73A/A74F/R107V/Q116R/Y118D) above, with F14R, C27K, G31C, M38V, Y60R, F73V, V106A counted along it

In general, Kd refers to the concentration at which binding is half-saturated. With `C=CC1=C(C)/C(=C/c2[nH]c(Cc3[nH]c(/C=C4\NC(=O)C(C)=C4C=C)c(C)c3CCC(=O)O)c(CCC(=O)O)c2C)NC1=O` [bilirubin], the Kd in test [1] was determined as 110 nM; in test [2] it was 242 nM; in test [3] it was 400 nM; in test [4] it was 69 nM; in test [5] it was 400 nM; in test [6] it was 19 nM. In addition, the Kd in test [7] was found to be 400 nM; in test [8] it was 137 nM.

These data come from US10295551B2, “Development and use of fluorescent probes of unbound bilirubin” (Alan Marc Kleinfeld, priority 2011, dated 2019).
